Experimental data from ChEMBL document CHEMBL3286288, “Diterpenes from the endangered goldenrod Solidago shortii” (2014).
Activity calls are given as the source filed them. The calls are words filed in the database; no cut-off is given here.

How the values were obtained:
NCI-H460 = assay: Growth inhibition of human NCI-H460 cells after 72 hrs at 10 uM; format: functional, cell-based
Staphylococcus aureus [1] = assay: Antibacterial activity against methicillin-resistant Staphylococcus aureus 108 assessed as growth inhibition up to 16 ug/ml after 24 hrs by broth microdilution method; format: functional, organism-based
Staphylococcus aureus [2] = assay: Antibacterial activity against methicillin-susceptible Staphylococcus aureus ATCC 25923 assessed as growth inhibition at 8 ug/ml after 24 hrs by broth microdilution method relative to control; format: functional; conditions: ATCC 25923, 24 h, read-out: GI
Staphylococcus aureus [3] = assay: Antibacterial activity against methicillin-susceptible Staphylococcus aureus ATCC 25923 assessed as growth inhibition at 64 ug/ml after 24 hrs by broth microdilution method; format: functional, organism-based

C/C=C(/C)C(=O)O[C@H]1C[C@]2(C)[C@@H](CC[C@@H](OC(=O)C(F)(F)F)[C@]2(C)O)[C@](C)(CCC2=CC(=O)OC2)[C@@H]1C
growth inhibition (GI) (NCI-H460): inactive
growth inhibition (GI) (Staphylococcus aureus [1]): inactive

C/C=C(/C)C(=O)O[C@H]1C[C@]2(C)[C@@H](CC[C@@H](NC(C)=O)[C@]2(C)O)[C@](C)(CCC2=CC(=O)OC2)[C@@H]1C
growth inhibition (GI) (NCI-H460): inactive
growth inhibition (GI) (Staphylococcus aureus [1]): inactive

C[C@@H]1C[C@H]2C(=O)C(C)(C)[C@@H](O)CC[C@]2(O)[C@]1(C)CCC1=CC(=O)OC1
growth inhibition (GI) (NCI-H460): inactive
inhibition of growth at 8 µg/mL (Staphylococcus aureus [2]): 66%
growth inhibition (GI) (Staphylococcus aureus [1]): inactive

C/C=C(/C)C(=O)O[C@H]1C[C@]2(C)[C@@H](CC[C@@H](O)[C@]2(C)O)[C@](C)(CCC2=CC(=O)OC2)[C@@H]1C
growth inhibition (GI) (NCI-H460): inactive
growth inhibition (GI) (Staphylococcus aureus [1]): inactive

C/C=C(/C)C(=O)O[C@H]1C[C@]2(C)[C@@H](CC[C@H]3O[C@]32C)[C@](C)(CCC2=CC(=O)OC2)[C@@H]1C
growth inhibition (GI) (Staphylococcus aureus [3]): inactive
growth inhibition (GI) (NCI-H460): inactive
growth inhibition (GI) (Staphylococcus aureus [1]): inactive

C[C@@H]1CC[C@]2(O)[C@H](C[C@H](O)C2(C)C)C(=O)[C@]1(C)CCC1=CC(=O)OC1
growth inhibition (GI) (NCI-H460): inactive
inhibition of growth at 8 µg/mL (Staphylococcus aureus [2]): 56%
growth inhibition (GI) (Staphylococcus aureus [1]): inactive
